What was measured:
Format in all cases: cell-based, human
[1] = system: interaction between p53 and FOXO4; assay: in situ PLA (proximity ligation assay) of the physical binding between p53 and FOXO4 in H2O2-treated HaCaT cells; details: H2O2 200 μM, peptide 20 μM, 1 hour; for inhibition of the interaction between p53 and FOXO4 (PLA signals): in comparison with the control group
Protocol: After treating cells with the peptides of the present invention, the effects thereof on the physical binding between p53 and FOXO4 were evaluated through an in situ PLA (proximity ligation assay) method. HaCaT cells (human keratinocytes, CLS) were added at 4.5×10^4 cells per well, along with a DMEM containing 10% fetal bovine serum, to each well of a 24-well microplate and then cultured at 37° C. in a 5% CO2 incubator for 24 hours. H2O2 and the peptide solutions of Example 2 and H2O2 were added thereto so that the concentrations of H2O2 and each peptide in the medium were 200 μM and 20 μM respectively, followed by incubating for 1 hour under the same condition. As a control group, an untreated group (indicated by “control” in FIG. 1) and a group treated with H2O2 alone (indicated by “-” in FIG. 1) were used. The cells of each well were washed with PBS, fixed by treating with 2% formaldehyde for 15 minutes, and then treated with 0.1% TritonX-100 for 5 minutes to increase antibody permeability into the cells. Anti-p53 polyclonal antibody (Abcam, UK) and anti-FOXO4 polyclonal antibody (Santa Cruz, Calif., USA) were added thereto. After the PLA probe was added thereto using the in situ PLA kit (Sigma-Aldrich), hybridization, ligation, amplification and mounting steps were carried out according to the manufacturer's protocol. Each physical interaction between p53 and FOXO4 was quantified by measuring the luminescence signals (PLA signals) detected in each cell with a confocal laser microscope (Olympus fluoview FW1000; Olympus, Tokyo, Japan).

[2] = system: interaction between p53 and FOXO4; assay: in situ PLA of p53-FOXO4 binding with ERK inhibitor (PD98059) and SHP2 inhibitor (NSC878777) in HaCaT cells; details: H2O2 200 μM, 1 hour, FIG. 2
Protocol: After treating cells with the peptide of the present invention (the peptide of SEQ ID NO: 3), H2O2, a ERK inhibitor (PD98059), and a SHP2 inhibitor (NSC878777), the effects thereof on the physical binding between p53 and FOXO4 were evaluated through an in situ PLA (proximity ligation assay) method. HaCaT cells (human keratinocytes, CLS) were added at 4.5×10^4 cells per well, along with a DMEM containing 10% fetal bovine serum, to each well of a 24-well microplate and then cultured at 37° C. in a 5% CO2 incubator for 24 hours. The cells were treated with H2O2 (200 μM) and the peptide of SEQ ID NO: 3 (20 μM); or PD98059 (10 μM) or NSC878777 (10 μM) was additionally treated to the cells treated with H2O2 (200 μM) and the peptide of SEQ ID NO: 3 (20 μM), followed by incubating for 1 hour under the same condition. As a control group, an untreated group (indicated by “control” in FIG. 2) and a group treated with H2O2 alone were used. The cells of each well were washed with PBS, fixed by treating with 2% formaldehyde for 15 minutes, and then treated with 0.1% TritonX-100 for 5 minutes to increase antibody permeability into the cells. […] Each physical interaction between p53 and FOXO4 was quantified by measuring the luminescence signals (PLA signals) detected in each cell with a confocal laser microscope (Olympus fluoview FW1000; Olympus, Tokyo, Japan).

[3] = system: senescent ARPE-19 cells (retinal pigment epithelial cells); assay: apoptosis of H2O2-induced senescent cells, X-Gal (Senescence β-Galactosidase) staining, number of remaining senescent cells; details: ARPE-19, H2O2 25 μM 24 hours, then peptide 0.2 μM, 2 μM and 20 μM 24 hours; versus H2O2 alone ("-" group); FIGS. 3 and 4
Protocol: In order to evaluate the activity on the apoptosis of senescent cells by the treatment with the peptide of the present invention (the peptide of SEQ ID NO: 3) for 24 hours after inducing senescence by treating cells with H2O2, the X-Gal staining was carried out to measure the number of the remaining senescent cells. ARPE-19 cells (retinal pigment epithelial cells) were added at the density of 80% per well, along with a DMEM containing 10% fetal bovine serum, to each well of a 12-well microplate and then cultured at 37° C. in a 5% CO2 incubator for 24 hours. H2O2 was added thereto so that the concentration thereof in the medium was 25 μM, followed by incubating for 24 hours under the same condition. Thereafter, the cells in each well were washed with PBS and the peptide solution of Example 2 was added thereto so that the concentration of the peptide of SEQ ID NO: 3 was 0.2 μM, 2 μM, and 20 μM respectively, followed by incubating for 24 hours under the same condition. As a control group, an untreated group (indicated as “control” in FIGS. 3 and 4) and a group treated with H2O2 alone (indicated by “-” in FIGS. 3 and 4) were used. […] The bluish green color development detected in the senescence-induced cells was measured with a phase-contrast microscope (Olympus, Tokyo, Japan), and each number of senescent cells was quantified.

| Substance | inhibition of the interaction between p53 and FOXO4 (PLA signals) ([1]; FIG. 1) | extent of inhibition of the interaction between p53 and FOXO4 in comparison with the control group (PLA signals) ([1]; FIG. 1) | further results |
| --- | --- | --- | --- |
| Leu-Leu-Asp (LLD) [Pep 8] | remarkably inhibited | – | inhibition of the interaction between p53 and FOXO4 (PLA signals) ([1]; FIG. 1, listed as SEQ ID NO: 8): particularly excellent activity |
| Leu-Ala-Asp (LAD) [Pep 4] | remarkably inhibited | – | inhibition of the interaction between p53 and FOXO4 (PLA signals) ([1]; FIG. 1, listed as SEQ ID NO: 4): particularly excellent activity |
| Leu-Trp-Asp (LWD) [Pep 19] | remarkably inhibited | – | inhibition of the interaction between p53 and FOXO4 (PLA signals) ([1]; FIG. 1, listed as SEQ ID NO: 19): particularly excellent activity |
| Leu-Thr-Asp (LTD) [Pep 18] | remarkably inhibited | two or more times | inhibition of the interaction between p53 and FOXO4 (PLA signals) ([1]; FIG. 1, listed as SEQ ID NO: 18): particularly excellent activity |
| Leu-Ile-Asp (LID) [Pep 15] | remarkably inhibited | two or more times | inhibition of the interaction between p53 and FOXO4 (PLA signals) ([1]; FIG. 1, listed as SEQ ID NO: 15): particularly excellent activity |
| Leu-Cys-Asp (LCD) [Pep 13] | remarkably inhibited | – | inhibition of the interaction between p53 and FOXO4 (PLA signals) ([1]; FIG. 1, listed as SEQ ID NO: 13): particularly excellent activity |
| Leu-Gln-Asp (LQD) [Pep 5] | remarkably inhibited | – | inhibition of the interaction between p53 and FOXO4 (PLA signals) ([1]; FIG. 1, listed as SEQ ID NO: 5): particularly excellent activity |
| Leu-Val-Asp (LVD) [Pep 20] | remarkably inhibited | two or more times | inhibition of the interaction between p53 and FOXO4 (PLA signals) ([1]; FIG. 1, listed as SEQ ID NO: 20): particularly excellent activity |
| Leu-Gly-Asp (LGD) [Pep 3] | remarkably inhibited | – | inhibition of the interaction between p53 and FOXO4 (PLA signals) ([1]; FIG. 1, listed as SEQ ID NO: 3): particularly excellent activity; dependence of the peptide's inhibitory signal on ERK and SHP2 ([2]; peptide 20 μM plus PD98059 10 μM or NSC878777 10 μM): dependent on ERK and SHP2 activation; inhibition of the interaction between p53 and FOXO4 (PLA signals) ([2]; peptide 20 μM): significantly inhibited; induction of apoptosis of senescent cells (number of remaining senescent cells) [3]: significantly induced the apoptosis of senescent cells |
| Leu-His-Asp (LHD) [Pep 14] | remarkably inhibited | two or more times | inhibition of the interaction between p53 and FOXO4 (PLA signals) ([1]; FIG. 1, listed as SEQ ID NO: 14): particularly excellent activity |
| Leu-Glu-Asp (LED) [Pep 1] | remarkably inhibited | two or more times | inhibition of the interaction between p53 and FOXO4 (PLA signals) ([1]; FIG. 1, listed as SEQ ID NO: 1): particularly excellent activity |
| Leu-Tyr-Asp (LYD) [Pep 9] | remarkably inhibited | two or more times | inhibition of the interaction between p53 and FOXO4 (PLA signals) ([1]; FIG. 1, listed as SEQ ID NO: 9): particularly excellent activity |
| Leu-Pro-Asp (LPD) [Pep 17] | remarkably inhibited | two or more times | inhibition of the interaction between p53 and FOXO4 (PLA signals) ([1]; FIG. 1, listed as SEQ ID NO: 17): particularly excellent activity |
| Leu-Phe-Asp (LFD) [Pep 11] | remarkably inhibited | two or more times | inhibition of the interaction between p53 and FOXO4 (PLA signals) ([1]; FIG. 1, listed as SEQ ID NO: 11): particularly excellent activity |
| Leu-Lys-Asp (LKD) [Pep 7] | remarkably inhibited | – | inhibition of the interaction between p53 and FOXO4 (PLA signals) ([1]; FIG. 1, listed as SEQ ID NO: 7): particularly excellent activity |

Source: patent US20230023726A1, “PHARMACEUTICAL COMPOSITION COMPRISING PEPTIDE THAT INHIBITS INTERACTION OF P53 AND FOXO4” (SUPADELIXIR INC., priority 2019, published 2023)
